From patent publication US20250179033A1 (priority 2021, published 2025)
Where two headings read alike, the source gives them in different places.

Experiments:
[1] = test system: HIV-1 IIIB A17 variant (Y181C/K103N); test: HIV inhibition assay in TZM-bl cells, A17 variant; type: cell-based; conditions: Human immunodeficiency virus 1, IIIB, TZM-bl; for IC50: read-out: IC50 (TZM, A17), Table 4, TZM-bl
Method: (§1) Cells and virus culture: TZM-bl cells (42), HIV-1 IIIB virus (43-45) and HIV-1 IIIB (A17 variant) virus (46) as well are the NNRTI resistant mutants (strain NL4-3) (47) were obtained from the NIH HIV Reagent Program. H9 [derivative of HuT 78]cells (ATCC® HTB176™) were obtained from the American Type Culture Collection (Manassas, Virginia, United States of America). These viruses were grown in H9 cells to high titer, which was tested using a HIV p24 (high sensitivity) The detection kit used was sold under the tradename ALPHALISA® Detection Kit (PerkinElmer, Waltham, Massachusetts, United States of America). The viruses were concentrated using Lenti-X Concentrator (Takara Bio USA, Inc., Mountain View, California, United States of America). Infections of TZM-bl cells with either virus was facilitated with 15 μg/mL DEAE-dextran.
(§2) Compounds were serially diluted starting with 10 mM stocks in DMSO. DMSO concentrations were kept the same for all dilutions used within an assay (either 0.005% or 0.05% depending on highest concentration used). Duplicate 96-well plates were set up with 25 μL compound dilution, 25 μL virus, and 50 μL TZM-bl cells (2×10^5/mL) with DEAE-dextran and incubated at 37° C. 5% CO2 for 48 hr. All compounds were tested in triplicate, with single wells of efavirenz dilutions on each plate. All plates had 3-5 control wells without compound, 1 control well with no cells, and 1 control well with a highly toxic level of DMSO (9%). Inhibition assays were set up in clear tissue-culture treated plates with lysates moved to black assay plates or were set up in black tissue culture-treated plates. Medium was removed and the cells were lysed with Glo Lysis Buffer (Promega, Madison, Wisconsin, United States of America). Luciferase Assay System reagent (Promega, Madison, Wisconsin, United States of America) was added to cells and relative light units (RLU) was measured using an EnSpire instrument (PerkinElmer, Waltham, Massachusetts, United States of America). Toxicity assays were set up in clear tissue culture-treated plates. CellTiter-Blue Cell Viability Assay reagent (Promega) was added to the wells after 46 hr incubation, followed by 2 hr incubation. Sodium lauryl sulfate was added to 1.5% to stop the reaction and the plates were measured for fluorescence (560 nmEx/590 nmEm) using an EnSpire instrument (PerkinElmer, Waltham, Massachusetts, United States of America).

[2] = Toxicity assay in TZM-bl cells; type: cell-based; conditions: human
Method: as §2

[3] = test system: primary mouse neuron cultures; test: Calcium imaging in primary neurons; type: cell-based; conditions: 1 μM
Method: The direct effects of the antiretroviral compounds were tested on primary rat and mouse neurons cultured on coverslips. Neurons at 14-18 days in vitro were loaded with the calcium indicator, Fluo-4 AM (2 μM, Molecular Probes, Inc., Eugene, Oregon, United States of America) in aCSF (aCSF: NaCl […], KCl 5.0 mM, CaCl2 2.3 mM, MgCl2 1.3 mM, glucose 20 mM). After 30 minutes of dye loading, the coverslip was transferred to a specialized stage for imaging. Cells were maintained in aCSF and time-lapse digital images were automatically captured on an Olympus IX71 microscope using software sold under the tradename METAMORPH® (Molecular Devices, San Jose, California, United States of America). Images were captured with a 40 msec exposure every 6 seconds for 6 minutes to assess acute effects and every minute for 60 minutes to assess delayed effects. Three pre-stimulation measurements were taken to establish basal levels of fluorescence at the beginning of each experiment. After collection of the third image, neurons the antiretroviral compound or vehicle diluted from the stock vial into aCSF was added to the neurons at the indicated final concentration. Baseline fluorescence was subtracted to correct for cell-to-cell differences in dye loading and intrinsic fluorescence. Changes in fluorescence at each time point were averaged across all cells from at least triplicate runs to provide an indication of the “typical” response. In some cases, individual cell response patterns are shown where the average masked important cell-specific profiles. All compounds were tested at 1 μM.

HIV-1 IIIB (wild-type) = test: HIV inhibition assay in TZM-bl cells, wild-type; type: cell-based; conditions: Human immunodeficiency virus 1, IIIB; for IC50: Table 4, TZM-bl, read-out: IC50 (TZM, WT)
Method: as §1, §2

[4] = biological target: T1, HIV I reverse transcriptase (Human immunodeficiency virus type 1 group M subtype B, UniProt P03366); test: Reverse transcriptase inhibition assay (Roche kit, ELISA); type: biochemical
T1 construct: purchased Roche
Method: NNRTI assay methods: Inhibition of HIV I reverse transcriptase was assessed via a kit from Roche (Indianapolis-Marion County, Indiana, United States of America) using the manufacture's protocol (500 μM final reverse transcriptase reaction amount). […] DMSO concentrations were kept the same for all dilutions used within an assay (0.05%). Final compound concentrations ranged from 5000 nM-0.05 nM with 2-fold serial dilutions. 96-well plates were set up with 20 μL compound dilution, 20 μL reverse transcriptase, and 20 μL template/nucleotides and incubated at 37° C. 5% CO2 for 1 hr in a reaction plate. 50 μL of each reaction was then transferred to a streptavidin conjugated 96-well plate and an ELISA assay was run based on manufacture's protocol. All compounds were tested in sextuplicate, with single wells of efavirenz dilutions on each plate.

| Compound | IC50 [1] [nM] | CC50 at 48 h ([2]; TZM-bl cells, Table 4, TZM-bl, read-out: CC50 (TZM)) [nM] | acute spike frequency / acute signaling [3] | delayed spike frequency [3] | total calcium accumulation [3] | toxic effects by calcium imaging, overall [3] | IC50 (HIV-1 IIIB (wild-type)) [nM] | EC50 ([1]; read-out: activity against the A17 double mutant (Y181C/K103N), EC50) [nM] | CC50 at 48 h [2] [nM] | EC50 (HIV-1 IIIB (wild-type); text b494, FIG. 2F, read-out: antiviral activity against wildtype, EC50) [nM] | EC50 [4] [nM] | IC50 [4] [nM] |
| --- | --- | --- | --- | --- | --- | --- | --- | --- | --- | --- | --- | --- |
| O=C1Nc2ccc(Cl)cc2[C@@](C#CC2CC2)(C(F)(F)F)O1 [Efavirenz, efavirenz] | 17 | > 100000 | trend towards a reduced acute signaling | increase | most dramatic increase | seemed to have some toxic effects | 0.658 |  |  |  |  |  |
| Cc1cc(/C=C/C#N)cc(C)c1Nc1ccnc(Nc2ccc(C#N)cc2)n1 [Rilpivirine, rilpivirine, reference compound] | 0.817 |  | decrease |  |  |  | 0.351 | 1.58 | 112000 | 0.35 | 376 | 1180 |
